Experimental findings from article PMC12777510 (Chempluschem, 2025) are described below.

The conditions of the data set: 19F NMR samples in D2O containing Saboraud Dextrose Broth (30 g/L), 5% d6-DMSO added to avoid precipitation.

Values after ≈ are worked out from the molar mass of the structure shown. *1 amine or outer side, *2 acyl side, *3 side chain or, on linkers, in order; H or OH if unused. Where a SMILES comes first, the peptide text is derived from it. [ ]: non-standard residue; d: D form. X1 = O=C(C[C@@H](CCCCCCCCCCC(F)(F)F)N[*:1])[*:2]

Broadly, the aqueous solubility is the dissolved amount per volume that the medium holds. High values mean much dissolved substance, low ones little dissolved substance.

On to `NC(=O)CC[C@@H]1NC(=O)[C@@H](CC(N)=O)NC(=O)[C@@H](Cc2ccc(O)cc2)NC(=O)[C@H](CC(N)=O)NC(=O)C[C@@H](CCCCCCCCCCC(F)(F)F)NC(=O)[C@H](CO)NC(=O)[C@@H](CC(N)=O)NC(=O)[C@@H]2CCCN2C1=O` [Compound 9, ω‐CF3 iturin A2] (cyclo(N[dY][dN]QP[dN]S[X1])), for which the aqueous solubility is given as 0.1 mM (≈ 110 µg/mL).
